The values that follow come from patent US20240269223A1, “PROPHYLACTIC OR THERAPEUTIC AGENT FOR ACUTE RENAL FAILURE” (KYOWA HAKKO BIO CO., LTD., priority 2021, published 2024).

Test [1] relates to rat ischemic acute renal injury model with unilateral nephrectomy. Put plainly: Rat ischemic acute renal injury model with unilateral nephrectomy. The conditions noted are these: 200 mg/kg GSSSG intraperitoneal once a day x4 (day -4 to -1) before 40 min ischemia/reperfusion, versus control group. Type of test: in vivo. How it is done: GSSSG dihydrate produced by the method described in Patent Literature 1 was carefully crushed in a mortar for 10 minutes or longer. 1,333 mg (1,250 mg in terms of anhydride) of GSSSG dihydrate was weighed out. 1,333 mg of the crushed GSSSG dihydrate was added to 40 mL of a normal saline, and the mixture was stirred in a suspended state for 5 minutes. 0.25 to 0.50 g of sodium bicarbonate was added to the suspension and dissolved. This GSSSG solution was transferred to a measuring cylinder, and a normal saline was added to make up 50 mL to obtain a preparation solution (final concentration: 25 mg/mL). The obtained preparation solution was filtered with a filter (0.22 μm filter) and used as an administration sample.
In the test, 4-week old male SD rats (body weight 99 to 113 g)
were used. A 16-day preliminary breeding period was set for the obtained animals. Rats with no abnormalities in body weight change and general condition were used for grouping.
One kidney was removed from rats in which no abnormalities were observed after the preliminary breeding period by the following method. […]
The administration sample was administered into the peritoneal cavity of rats from which the right kidney was removed using a disposable polypropylene syringe with an injection needle. […] The amount of solution administered was calculated at 8 mL/kg based on the body weight on the first day of administration. […]

For test [2], the system named is rat bilateral kidney simultaneous ligation ischemic acute renal injury model. As to the kind of experiment: Rat bilateral kidney simultaneous ligation ischemic acute renal injury model. Type of test: in vivo. The conditions noted are these: for Blood creatinine (CRE), before administration / Blood urea nitrogen (UN), before administration: baseline, day before administration; for Blood creatinine (CRE), before administration / Blood urea nitrogen (UN), before administration / GDF-15 (growth differentiation factor), 48 hours after ischemia reperfusion / Blood creatinine (CRE), 48 hours after ischemia reperfusion / Blood urea nitrogen (UN), 48 hours after ischemia reperfusion: plasma; for GDF-15 (growth differentiation factor), 48 hours after ischemia reperfusion: ELISA, control 1532 ± 246, placebo surgery 75.2 ± 4.3; for Blood creatinine (CRE), 48 hours after ischemia reperfusion: control 2.98 ± 0.56, placebo surgery 0.24 ± 0.01; for Blood urea nitrogen (UN), 48 hours after ischemia reperfusion: control 154.6 ± 19.5, placebo surgery 14.4 ± 1.1. As for the experimental part: GSSSG dihydrate produced by the method described in Patent Literature 1 was carefully crushed in a mortar for 10 minutes or longer. A required amount of GSSSG dihydrate was weighed out. 0.5 w/v % methylcellulose (hereinafter abbreviated to as MC) was added to the crushed GSSSG dihydrate to prepare a suspension at a concentration of 10 mg/mL, and used as an administration sample for a high-dose administration group. The 10 mg/mL suspension was diluted with 0.5 w/v % MC to prepare a 4 mg/mL suspension, and used as an administration sample for a low-dose administration group.
In the test, 5-week old male SD rats (body weight 136 to 154 g) were used. An 8-day preliminary breeding period was set for the obtained animals. Rats with no abnormalities in body weight change and general condition were used for grouping.
The administration method was oral administration. Forced oral administration was performed using a disposable polypropylene syringe with a metal oral gavage tube for rats. The amount of solution administered was 5 ml/kg for both the high dose group and the low dose group based on the body weight closest to that of the day of administration. Administration was performed a total of 5 times: 1 day before, 2 days before, and 3 days before the ischemia treatment was performed, 1 hour before the ischemia treatment, and 2 hours after the reperfusion treatment.
The ischemia and reperfusion treatments were performed as follows. Anesthesia was performed by intraperitoneal administration of 45 mg/kg (1 mL/kg) of pentobarbital sodium and subcutaneous administration of 1 mg/kg (1 mL/kg) of butorphanol tartrate. Both dorsal parts where the kidneys were located were shaved. Then, the animals were treated on a heater mat. The surgical site was disinfected with about 70% of an alcohol and then incised using scissors. After both kidneys of the animals in Group 2 to Group 4 in Table 3 were exposed, the renal arteries and veins of the left kidney and the right kidney in order were clamped using Klemme (clip power 120 g) for 40 minutes. During clamping, the kidney was returned to the body in order to prevent kidney desiccation. During reperfusion, it was confirmed that the blood color of the kidney was returned to normal (red), and the laparotomy wound was closed and disinfected with Isodine. In the animals of the Group 1, both kidneys were exposed, and returned to the peritoneal cavity without ischemia treatment, and the laparotomy wound was closed and disinfected with Isodine 40 minutes after incision. After suturing, the rats were returned to the original breeding cage.
On the day before administration, without anesthesia, about 0.25 mL of blood was collected from the tail vein using a heparin Na-treated capillary (DRUMMOND). The collected blood was cooled on ice and then separated using a centrifuge (4° C., 2,200×g, for 15 minutes), and the UN concentration and the CRE concentration were measured using the obtained plasma.
48 hours after the reperfusion treatment, under isoflurane anesthesia, all blood was collected from abdominal aorta, using a winged injection needle and a heparin Na-treated vacuum blood collection tube. The collected blood was cooled on ice and then separated using a centrifuge (4° C., 2,150×g, for 15 minutes), and UN, CRE and GDF-15 (Mouse/Rat GDF-15 Quantikine ELISA Kit, R&D Systems, Inc) were measured using the obtained plasma.

As to `N[C@@H](CCC(=O)N[C@@H](CSSSC[C@H](NC(=O)CC[C@H](N)C(=O)O)C(=O)NCC(=O)O)C(=O)NCC(=O)O)C(=O)O` [GSSSG, glutathione trisulfide], in test [1] (FIG. 1), the “UN value (urea nitrogen concentration in plasma)” value is “decreased”. In test [1] (FIG. 2), the “CRE value (creatinine concentration in plasma)” value is reported as “decreased”. Further, in test [2] (20 mg/kg oral group), the “Blood creatinine (CRE), before administration” value was 0.21 ± 0.00 mg/dL and the “Blood urea nitrogen (UN), before administration” value is 13.5 ± 0.5 mg/dL. In test [2] (20 mg/kg oral x5), the “GDF-15 (growth differentiation factor), 48 hours after ischemia reperfusion” value is on record as 1673 ± 595 pg/mL; the “Blood creatinine (CRE), 48 hours after ischemia reperfusion” value was 2.29 ± 0.52 mg/dL; the “Blood urea nitrogen (UN), 48 hours after ischemia reperfusion” value is 136.8 ± 24.6 mg/dL. Moreover, the therapeutic effect entry in test [2] (50 mg/kg oral administration group) is recorded as “a therapeutic effect was exhibited”. Moreover, the “GDF-15 concentration, change versus control group” value in test [2] (50 mg/kg oral group, 48 hours after reperfusion) is recorded as “slightly decreased”. In test [2] (50 mg/kg oral group), the “Blood creatinine (CRE), before administration” value is given as 0.20 ± 0.00 mg/dL and the “Blood urea nitrogen (UN), before administration” value was 11.5 ± 0.4 mg/dL. Also, in test [2] (50 mg/kg oral x5), the “GDF-15 (growth differentiation factor), 48 hours after ischemia reperfusion” value was 1327 ± 300 pg/mL; the “Blood creatinine (CRE), 48 hours after ischemia reperfusion” value is 2.07 ± 0.45 mg/dL; the “Blood urea nitrogen (UN), 48 hours after ischemia reperfusion” value was determined as 106.2 ± 16.5 mg/dL. Moreover, the “UN value, change versus control group” value in test [2] (GSSSG administration group, 20 and 50 mg/kg oral, 48 hours after reperfusion, Table 5) is given as “decreased in a dose-dependent manner”. Further, in test [2] (GSSSG administration group, 20 and 50 mg/kg oral, 48 hours after reperfusion, Table 6), the “CRE value, change versus control group” value was “decreased in a dose-dependent manner”.
